This assay concerns the target T1, hSTING (Homo sapiens, UniProt Q86WV6, G230A/H232R/R293Q/R71H).
T1 construct: host or cells: THP1-Dual KO-IFNAR2 cells
Kind of assay: STING reporter assay: THP1-Dual KO-IFNAR2 cells stimulated with 2′3′cGAMP, luciferase reporter activity. Conditions: 15 μM 2′3′cGAMP transfected with Lipofectamine 2000, 24 h, luciferase reporter (QUANTI-Luc). The format is cell-based. The method, then:
STING pathway activation by the compounds described herein was measured using THP1-Dual™ cells (KO-IFNAR2).
THP1-Dual™ KO-IFNAR2 Cells (obtained from invivogen) were maintained in RPMI, 10% FCS, 5 ml P/S, 2 mM L-glut, 10 mM Hepes, and 1 mM sodium pyruvate. Compounds were spotted in empty 384 well tissue culture plates (Greiner 781182) by Echo for a final concentration of 0.0017-100 μM. Cells were plated into the TC plates at 40 μL per well, 2×10E6 cells/mL. For activation with STING ligand, 2′3′cGAMP (MW 718.38, obtained from Invivogen), was prepared in Optimem media.
The following solutions were prepared for each 1×384 plate: • Solution A: 2 mL Optimem with one of the following stimuli: • 60 μL of 10 mM 2′3′cGAMP→150 μM stock • Solution B: 2 mL Optimem with 60 μL Lipofectamine 2000→Incubate 5 min at RT
2 mL of solution A and 2 ml Solution B was mixed and incubated for 20 min at room temperature (RT). 20 μL of transfection solution (A+B) was added on top of the plated cells, with a final 2′3′cGAMP concentration of 15 μM. The plates were then centrifuged immediately at 340 g for 1 minute, after which they were incubated at 37° C., 5% CO2, >98% humidity for 24 h. Luciferase reporter activity was then measured. EC50 values were calculated by using standard methods known in the art.
Luciferase reporter assay: 10 μL of supernatant from the assay was transferred to white 384-plate with flat bottom and squared wells. One pouch of QUANTI-Luc™ Plus was dissolved in 25 mL of water. 100 μL of QLC Stabilizer per 25 mL of QUANTI-Luc™Plus solution was added. 50 μL of QUANTI-Luc™ Plus/QLC solution per well was then added. Luminescence was measured on a Platereader (e.g., Spectramax I3X (Molecular Devices GF3637001)).
Luciferase reporter activity was then measured. EC50 values were calculated by using standard methods known in the art.
T1 sequence (Q86WV6 whole entry R71H/G230A/H232R/R293Q): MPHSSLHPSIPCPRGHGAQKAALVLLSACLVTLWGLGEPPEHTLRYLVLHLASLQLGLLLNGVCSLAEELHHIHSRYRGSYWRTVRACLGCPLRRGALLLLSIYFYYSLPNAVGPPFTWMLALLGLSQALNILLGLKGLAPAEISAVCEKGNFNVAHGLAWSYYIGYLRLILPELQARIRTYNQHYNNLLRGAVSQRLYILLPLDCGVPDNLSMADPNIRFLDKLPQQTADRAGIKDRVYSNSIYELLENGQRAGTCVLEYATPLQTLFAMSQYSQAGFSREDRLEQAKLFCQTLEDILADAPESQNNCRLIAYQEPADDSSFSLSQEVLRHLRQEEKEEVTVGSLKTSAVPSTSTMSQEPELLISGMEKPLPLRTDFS
As for `O=C(Nc1c[nH]c2cc(F)c(F)cc12)c1cnn(CCOc2cncc(C(F)(F)F)c2)c1` [Compound 161, N-(5,6-difluoro-1H-indol-3-yl)-1-(2-((5-(trifluoromethyl)pyridin-3-yl)oxy)ethyl)-1H-pyrazole-4-carboxamide], the EC50 lay in the range of 200 to 1000 nM. In the case of `Cn1nc(C(=O)Nc2c[nH]c3cc(F)c(Cl)cc23)cc1Cc1ccc(C(F)(F)F)cc1` [Compound 162, N-(5-chloro-6-fluoro-1H-indol-3-yl)-1-methyl-5-(4-(trifluoromethyl)benzyl)-1H-pyrazole-3-carboxamide], the half-maximal effective concentration (EC50) fell in the range of 40 to 200 nM.

The compound `Cc1cc(Cn2cc(C(=O)Nc3c[nH]c4cc(F)c(F)cc34)cn2)cnc1OCC(F)(F)F` [Compound 163, N-(5,6-difluoro-1H-indol-3-yl)-1-((5-methyl-6-(2,2,2-trifluoroethoxy)pyridin-3-yl)methyl)-1H-pyrazole-4-carboxamide] yielded a concentration giving a half-maximal response (EC50) of 40 to 200 nM. In the case of `Cc1cc(-c2cc(C(=O)Nc3c[nH]c4cc(F)c(F)cc34)n[nH]2)ccc1Cl` [Compound 164, 5-(4-chloro-3-methylphenyl)-N-(5,6-difluoro-1H-indol-3-yl)-1H-pyrazole-3-carboxamide] it was 200 to 1000 nM; in that of `Cc1cc(-n2cc(C(=O)Nc3c[nH]c4cc(F)c(F)cc34)nn2)cnc1OCC(F)(F)F` [Compound 165, N-(5,6-difluoro-1H-indol-3-yl)-1-(5-methyl-6-(2,2,2-trifluoroethoxy)pyridin-3-yl)-1H-1,2,3-triazole-4-carboxamide], 200 to 1000 nM. As to `O=C(Nc1c[nH]c2cc(F)c(Cl)cc12)c1cc(Cc2ccc(C(F)(F)F)cc2)n(C(F)F)n1` [Compound 166, N-(5-chloro-6-fluoro-1H-indol-3-yl)-1-(difluoromethyl)-5-(4-(trifluoromethyl)benzyl)-1H-pyrazole-3-carboxamide], the EC50 lay in the range of 200 to 1000 nM. In the case of `O=C(Nc1c[nH]c2cc(F)c(F)cc12)c1cc(-c2ccc(Cl)cc2)on1` [Compound 167, 5-(4-chlorophenyl)-N-(5,6-difluoro-1H-indol-3-yl)isoxazole-3-carboxamide] it was 200 to 1000 nM; in that of `O=C(Nc1c[nH]c2cc(F)c(Cl)cc12)c1cn(Cc2ccc(C(F)(F)F)cc2)nn1` [Compound 168, N-(5-chloro-6-fluoro-1H-indol-3-yl)-1-(4-(trifluoromethyl)benzyl)-1H-1,2,3-triazole-4-carboxamide], 200 to 1000 nM; in that of `CC(C)(C)OC(=O)N1CCC(n2cc(C(=O)Nc3c[nH]c4cc(F)c(F)cc34)nn2)CC1` [Compound 169, tert-butyl 4-(4-((5,6-difluoro-1H-indol-3-yl)carbamoyl)-1H-1,2,3-triazol-1-yl)piperidine-1-carboxylate], 1000 to 5000 nM.

`O=C(Nc1c[nH]c2cc(F)c(F)cc12)c1cc(-c2ccc(F)cc2F)on1` [Compound 170, N-(5,6-difluoro-1H-indol-3-yl)-5-(2,4-difluorophenyl)isoxazole-3-carboxamide] came in with an EC50 of 200 to 1000 nM. As to `O=C(Nc1c[nH]c2cc(F)c(F)cc12)c1cc(-c2ccc(Cl)cc2)no1` [Compound 171, 3-(4-chlorophenyl)-N-(5,6-difluoro-1H-indol-3-yl)isoxazole-5-carboxamide], the EC50 lay within 200 to 1000 nM. As for `Cn1nc(C(=O)Nc2c[nH]c3cc(F)c(F)cc23)cc1-c1ccccc1` [Compound 172, N-(5,6-difluoro-1H-indol-3-yl)-1-methyl-5-phenyl-1H-pyrazole-3-carboxamide], the EC50 lay within 200 to 1000 nM.

Take `O=C(Nc1c[nH]c2cc(F)c(F)cc12)c1cc(-c2cc(F)cc(F)c2)[nH]n1` [Compound 173, N-(5,6-difluoro-1H-indol-3-yl)-5-(3,5-difluorophenyl)-1H-pyrazole-3-carboxamide]: the EC50 is 200 to 1000 nM. The figure for `O=C(Nc1c[nH]c2cc(F)c(F)cc12)c1cc(-c2cccc(Cl)c2)[nH]n1` [Compound 174, 5-(3-chlorophenyl)-N-(5,6-difluoro-1H-indol-3-yl)-1H-pyrazole-3-carboxamide] is 200 to 1000 nM. With `O=C(Nc1c[nH]c2cc(F)c(F)cc12)c1cc(-c2ccccc2)[nH]n1` [Compound 175, N-(5,6-difluoro-1H-indol-3-yl)-5-phenyl-1H-pyrazole-3-carboxamide], the EC50 was 200 to 1000 nM. For `O=C(Nc1c[nH]c2cc(F)c(F)cc12)c1cc(-c2ccncc2)[nH]n1` [Compound 176, N-(5,6-difluoro-1H-indol-3-yl)-5-(pyridin-4-yl)-1H-pyrazole-3-carboxamide], the EC50 is 5000 to 100000 nM. In the case of `O=C(Nc1c[nH]c2cc(F)c(F)cc12)c1csc(-c2ccc(OC(F)(F)F)cc2)n1` [Compound 177, N-(5,6-difluoro-1H-indol-3-yl)-2-(4-(trifluoromethoxy)phenyl)thiazole-4-carboxamide] it was 1000 to 5000 nM; in that of `CC(C)(O)CCc1ncc(-n2cc(C(=O)Nc3c[nH]c4cc(F)c(F)cc34)nn2)cc1F` [Compound 179, N-(5,6-difluoro-1H-indol-3-yl)-1-[5-fluoro-6-(3-hydroxy-3-methylbutyl)pyridin-3-yl]-1H-1,2,3-triazole-4-carboxamide], 5000 to 100000 nM.
